In ChEMBL document CHEMBL1154301, “A naturally occurring brominated furanone covalently modifies and inactivates LuxS” (Bioorg Med Chem Lett, 2009):
Calls of active or inactive are those of the source. The rule behind the calls is not given here.

Assays:
[1] = biological target: T1, S-ribosylhomocysteine lyase (Escherichia coli K-12) (UniProt P45578); experiment: Inhibition of Escherichia coli LuxS using variable levels of S-ribosyl-homocysteine substrate by UV/Vis absorbance spectroscopy; conditions: TDE = time-dependent effect
T1 sequence (whole entry): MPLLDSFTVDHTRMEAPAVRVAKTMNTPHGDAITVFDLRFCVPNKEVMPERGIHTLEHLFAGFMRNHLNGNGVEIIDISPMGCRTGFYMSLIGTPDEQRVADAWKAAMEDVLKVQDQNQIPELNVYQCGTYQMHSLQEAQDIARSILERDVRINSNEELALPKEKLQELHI

[2] = biological target: T1, S-ribosylhomocysteine lyase (Escherichia coli K-12); experiment: Inhibition of Escherichia coli LuxS assessed as induction of covalent modification by UV/Vis absorbance spectroscopy
[3] = biological target: T1, S-ribosylhomocysteine lyase (Escherichia coli K-12); experiment: Inhibition of Escherichia coli LuxS assessed as formation of enzyme-adduct formation by mass spectrometry
[4] = biological target: T1, S-ribosylhomocysteine lyase (Escherichia coli K-12); experiment: Inhibition of Escherichia coli LuxS assessed as induction of Cys126 alkylation by MALDI-MS method
[5] = biological target: T1, S-ribosylhomocysteine lyase (Escherichia coli K-12); experiment: Inhibition of Escherichia coli LuxS using S-ribosyl-homocysteine substrate at pH 7 after 10 mins by fluorimetric assay
[6] = biological target: T1, S-ribosylhomocysteine lyase (Escherichia coli K-12); experiment: Inhibition of Escherichia coli LuxS using variable levels of S-ribosyl-homocysteine substrate at pH 7 after 10 mins by fluorimetric assay

| inhibition [1] | inhibition [2] | inhibition [3] | inhibition [4] | inhibition [5] | inhibition [6] | SMILES |
| --- | --- | --- | --- | --- | --- | --- |
| tde | Active | Active | Active | Dose-dependent effect | Active | CCCCC1=C(Br)/C(=C/Br)OC1=O |
| – | – | – | – | Active | – | CCCCC1=CC(=C(Br)Br)OC1=O |
| – | – | – | – | Dose-dependent effect | – | O=C1C=C/C(=C/Br)O1 |
| – | – | – | – | Active | – | O=C1C=CC(=C(Br)Br)O1 |
